Reference: patent US20230135093A1, “TRIAZOLYL DERIVATIVES AS GABA A ALPHA5 PAM” (Hoffmann-La Roche Inc., priority 2020, published 2023)

Experiments:
[1] = target: T1, h-GABA-A α5β3γ2 (Homo sapiens, UniProt P18507+P31644); test: [3H]flumazenil competition binding assay on membranes of HEK293 cells expressing GABAA receptors; conditions: Table 1; displacement of [3H]-Flumazenil (0.5 nM), HEK293 cells expressing human receptors, means of two determinations
T1 construct: expressed in transfected cells; host or cells: Xenopus laevis oocytes, micro-injected with subunit RNA
Outline: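 Competition for [3H]flumazenil (0.5 nM for α5 subunits) was measured at equilibrium (1 h, 4 °C, Krebs-tris buffer pH 7.5) on transiently transfected HEK293 membranes bearing human α5β3γ2 receptors, with 10^−5 M diazepam defining nonspecific binding. Ki values were derived from filtration and scintillation counting, averaged over duplicates.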

[2] = target: T1, h-GABA-A α5β3γ2; test: Two-electrode voltage clamp electrophysiology in Xenopus oocytes expressing GABAA receptors (modulation of GABA EC20 current); assay type: cell-based; conditions: Table 1; for Efficacy (GABA) %: % modulation of GABA EC20 = 100*(Fold increase-1); for Fold increase h-GABA-A α5β3γ2 oocyte: Xenopus oocytes, GABA EC20, test compound at approximatively 30 fold its Ki
Outline: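 GABA EC20 currents in human α5β3γ2-expressing Xenopus oocytes, voltage-clamped at −80 mV (room temperature, pH 7.4), measured with and without compound at ~30× Ki applied 0.5 min into the second GABA pulse. % modulation = 100×(fold increase−1), taken from the extremum of the current ratio trace; at least 3 oocytes per concentration.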

Structure (SMILES) | Ki [1] [nM] | Efficacy (GABA) % [2] [%] | Fold increase h-GABA-A α5β3γ2 oocyte [2]
Cn1nnc(-c2ccc(Cl)cc2F)c1Cn1ncc(N2CC(Oc3ccc(Cl)nc3)C2)cc1=O [Example 52, 2-[[5-(4-chloro-2-fluoro-phenyl)-3-methyl-triazol-4-yl]methyl]-5-[3-[(6-chloro-3-pyridyl)oxy]azetidin-1-yl]pyridazin-3-one] | 4.1 | 55 | 1.55
Cn1nnc(-c2ccc(Cl)cc2F)c1Cn1ncc(N2CC(OC(F)F)C2)cc1=O [Example 53, 2-((5-(4-chloro-2-fluoro-phenyl)-3-methyl-triazol-4-yl)methyl)-5-(3-(difluoromethoxy)azetidin-1-yl)pyridazin-3-one] | 5.4 | 69 | 1.69
Cn1nnc(-c2ccc(Cl)cc2F)c1Cn1ncc(N2CC(OCC(F)F)C2)cc1=O [Example 54, 2-[[5-(4-chloro-2-fluoro-phenyl)-3-methyl-triazol-4-yl]methyl]-5-[3-(2,2-difluoro-ethoxy)azetidin-1-yl]pyridazin-3-one] | 6.4 | 82 | 1.82
Cn1nnc(-c2ccc(Cl)cc2F)c1Cn1ncc(N2CC(Oc3ccnc(Cl)c3)C2)cc1=O [Example 55, 2-[[5-(4-chloro-2-fluoro-phenyl)-3-methyl-triazol-4-yl]methyl]-5-[3-[(2-chloro-4-pyridyl)oxy]azetidin-1-yl]pyridazin-3-one] | 5.8 | 111 | 2.11
COc1ccc(-c2cnn(Cc3c(C)nnn3-c3ccc(Cl)cc3F)c(=O)c2)cc1 [Example 56, 2-((3-(4-chloro-2-fluoro-phenyl)-5-methyl-triazol-4-yl)methyl)-5-(4-methoxyphenyl)pyridazin-3-one] | 21.6 | 50 | 1.5
Cc1nnn(-c2ccc(Cl)cc2F)c1Cn1ncc(-c2ccnc(C(F)(F)F)c2)cc1=O [Example 57, 2-((3-(4-chloro-2-fluoro-phenyl)-5-methyl-triazol-4-yl)methyl)-5-(2-(trifluoromethyl)-4-pyridyl)pyridazin-3-one] | 43 | 64 | 1.64
C[C@@H]1CN(c2cnn(Cc3c(-c4ccc(F)cc4F)nnn3C)c(=O)c2)C[C@H](C)O1 [Example 58, 2-[[5-(2,4-difluorophenyl)-3-methyl-triazol-4-yl]methyl]-5-[(2R,6S)-2,6-dimethylmorpholin-4-yl]pyridazin-3-one] | 7 | 138 | 2.38
Cn1nnc(-c2ccc(Cl)cc2)c1Cn1ncc(N2CC(OCC(F)(F)F)C2)cc1=O [Example 59, 2-[[5-(4-chlorophenyl)-3-methyl-triazol-4-yl]methyl]-5-[3-(2,2,2-trifluoro-ethoxy)azetidin-1-yl]pyridazin-3-one] | 37.1 | 81 | 1.81
Cn1nnc(-c2ccc(Cl)cc2)c1Cn1ncc(N2CC(OCC(F)F)C2)cc1=O [Example 60, 2-[[5-(4-chlorophenyl)-3-methyl-triazol-4-yl]methyl]-5-[3-(2,2-difluoro-ethoxy)azetidin-1-yl]pyridazin-3-one] | 45 | 76 | 1.76
COc1ccc(-c2cnn(Cc3c(-c4ccc(Cl)cc4F)nnn3C)c(=O)c2)cc1 [Example 61, 2-((5-(4-chloro-2-fluoro-phenyl)-3-methyl-triazol-4-yl)methyl)-5-(4-methoxyphenyl)pyridazin-3-one] | 2.6 | 52 | 1.52
COc1ccc(-c2cnn(Cc3c(-c4ccc(Cl)cc4F)nnn3C)c(=O)c2)cn1 [Example 62, 2-((5-(4-chloro-2-fluoro-phenyl)-3-methyl-triazol-4-yl)methyl)-5-(6-methoxy-3-pyridyl)pyridazin-3-one] | 8.2 | 50 | 1.5
COc1cc(-c2cnn(Cc3c(-c4ccc(Cl)cc4F)nnn3C)c(=O)c2)ccn1 [Example 63, 2-((5-(4-chloro-2-fluoro-phenyl)-3-methyl-triazol-4-yl)methyl)-5-(2-methoxy-4-pyridyl)pyridazin-3-one] | 2.2 | 42 | 1.42
Cn1cc(-c2cnn(Cc3c(-c4ccc(Cl)cc4F)nnn3C)c(=O)c2)cn1 [Example 64, 2-((5-(4-chloro-2-fluoro-phenyl)-3-methyl-triazol-4-yl)methyl)-5-(1-methylpyrazol-4-yl)pyridazin-3-one] | 11.2 | 76 | 1.76
Cc1nnn(-c2ccc(Cl)cc2F)c1Cn1ncc(-c2cnn(C3CC3)c2)cc1=O [Example 65, 2-((3-(4-chloro-2-fluoro-phenyl)-5-methyl-triazol-4-yl)methyl)-5-(1-cyclopropylpyrazol-4-yl)pyridazin-3-one] | 47.5 | 42 | 1.42
CCOc1ncc(-c2cnn(Cc3c(-c4ccc(Cl)cc4F)nnn3C)c(=O)c2)cc1C [Example 66, 2-((5-(4-chloro-2-fluoro-phenyl)-3-methyl-triazol-4-yl)methyl)-5-(6-ethoxy-5-methyl-3-pyridyl)pyridazin-3-one] | 19 | 143 | 2.43
Cn1nnc(-c2ccc(Cl)cc2F)c1Cn1ncc(-c2cnn(C3CC3)c2)cc1=O [Example 67, 2-((5-(4-chloro-2-fluoro-phenyl)-3-methyl-triazol-4-yl)methyl)-5-(1-cyclopropylpyrazol-4-yl)pyridazin-3-one] | 11 | 55 | 1.55
COc1ncc(-c2cnn(Cc3c(C)nnn3-c3ccc(Cl)cc3F)c(=O)c2)cc1Cl [Example 68, 2-((3-(4-chloro-2-fluoro-phenyl)-5-methyl-triazol-4-yl)methyl)-5-(5-chloro-6-methoxy-3-pyridyl)pyridazin-3-one] | 32.2 | 130 | 2.3
COc1ncc(-c2cnn(Cc3c(-c4ccc(Cl)cc4F)nnn3C)c(=O)c2)cc1Cl [Example 69, 2-((5-(4-chloro-2-fluoro-phenyl)-3-methyl-triazol-4-yl)methyl)-5-(5-chloro-6-methoxy-3-pyridyl)pyridazin-3-one] | 4.3 | 125 | 2.25
CC(C)OC1CN(c2cnn(Cc3c(-c4ccc(C(F)(F)F)cc4F)nnn3C)c(=O)c2)C1 [Example 70, 2-[[5-[2-fluoro-4-(trifluoromethyl)phenyl]-3-methyl-triazol-4-yl]methyl]-5-(3-isopropoxyazetidin-1-yl)pyridazin-3-one] | 25 | 71 | 1.71
Cn1nnc(-c2ccc(C(F)(F)F)cc2F)c1Cn1ncc(N2CC(OC(F)F)C2)cc1=O [Example 71, 5-[3-(difluoromethoxy)azetidin-1-yl]-2-[[5-[2-fluoro-4-(trifluoromethyl)phenyl]-3-methyl-triazol-4-yl]methyl]pyridazin-3-one] | 12.2 | 75 | 1.75
